Key:
[1] = biological target: T1, Synaptic vesicular amine transporter (Rattus norvegicus, UniProt Q01827); assay: Displacement of [125I]-iodovinyl-TBZ from VMAT2 in rat striatal membrane homogenates; format: cell membranes, Striatum
[2] = biological target: T1, Synaptic vesicular amine transporter; assay: Displacement of [3H]-DTBZ from VMAT2 in rat striatal membrane homogenates; format: cell membranes, Striatum
[3] = biological target: Synaptic vesicular amine transporter (Homo sapiens, UniProt Q05940); assay: Binding affinity to VMAT2
[4] = Ratio of drug level in striatum to cerebellum in iv dosed mouse after 30 mins; format: ADME, organism-based; details: in vivo, 0.5 h

T1 sequence (Q01827 whole entry): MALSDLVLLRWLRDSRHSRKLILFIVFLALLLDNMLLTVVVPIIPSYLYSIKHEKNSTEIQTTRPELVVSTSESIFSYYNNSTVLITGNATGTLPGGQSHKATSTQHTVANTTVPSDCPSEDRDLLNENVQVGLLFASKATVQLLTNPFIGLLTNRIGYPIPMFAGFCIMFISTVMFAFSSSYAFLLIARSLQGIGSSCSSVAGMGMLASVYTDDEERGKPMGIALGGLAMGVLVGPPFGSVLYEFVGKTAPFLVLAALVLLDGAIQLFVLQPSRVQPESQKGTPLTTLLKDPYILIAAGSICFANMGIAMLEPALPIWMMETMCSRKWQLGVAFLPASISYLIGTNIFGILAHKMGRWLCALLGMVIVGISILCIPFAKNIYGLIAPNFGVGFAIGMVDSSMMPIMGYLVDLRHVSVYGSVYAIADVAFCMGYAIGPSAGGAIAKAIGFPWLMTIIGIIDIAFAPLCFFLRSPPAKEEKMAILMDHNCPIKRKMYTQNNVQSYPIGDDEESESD
Sequence of Synaptic vesicular amine transporter (Homo sapiens, UniProt Q05940) (Q05940 whole entry): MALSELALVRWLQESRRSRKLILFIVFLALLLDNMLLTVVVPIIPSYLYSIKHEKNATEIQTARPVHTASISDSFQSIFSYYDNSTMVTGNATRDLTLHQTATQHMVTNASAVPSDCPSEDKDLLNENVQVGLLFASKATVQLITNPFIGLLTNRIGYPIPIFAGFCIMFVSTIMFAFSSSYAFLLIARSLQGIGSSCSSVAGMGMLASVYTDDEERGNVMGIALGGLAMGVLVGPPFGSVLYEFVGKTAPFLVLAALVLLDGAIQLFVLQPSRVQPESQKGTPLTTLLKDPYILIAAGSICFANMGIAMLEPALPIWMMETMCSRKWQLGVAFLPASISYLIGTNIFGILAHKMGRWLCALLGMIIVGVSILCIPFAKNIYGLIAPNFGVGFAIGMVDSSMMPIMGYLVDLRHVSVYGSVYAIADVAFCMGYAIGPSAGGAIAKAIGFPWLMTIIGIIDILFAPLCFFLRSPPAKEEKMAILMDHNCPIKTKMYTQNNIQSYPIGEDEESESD

SMILES | Ki [1] [nM] | Ki [2] [nM] | Ki [3] [nM] | Ratio [4]
CNC1CC2c3cc(OC)c(OC)cc3CCN2CC1CC(C)C (stereo unspecified) | 199 | 269 | – | –
COc1cc2c(cc1OC)C1CC(NCCF)C(CC(C)C)CN1CC2 (mixture of isomers) | 28 | 230 | – | –
COc1cc2c(cc1OC)C1CC(NCCF)C(CC(C)C)CN1CC2 (single isomer, unassigned; diastereomer 2) | 226 | 686 | – | –
COc1cc2c(cc1OC)C1CC(NCCF)C(CC(C)C)CN1CC2 (stereo in doubt; 4-I) | 9.21 | 8.63 | – | –

Now from value to molecule:

Ki [1] [nM] | Ki [2] [nM] | Ki [3] [nM] | Ratio [4] | SMILES
45 | 150 | – | – | COc1cc2c(cc1OC)C1CC(N)C(CC(C)C)CN1CC2 (stereo unspecified)
8.68 | 7.01 | – | – | COc1cc2c(cc1OC)C1CC(NCCCF)C(CC(C)C)CN1CC2 (stereo unspecified)
0.24 | 0.36 | 0.1 | 4.51 | COc1cc2c(cc1OCCCF)CCN1C[C@@H](CC(C)C)[C@H](O)C[C@H]21 [FLORBENAZINE]

— ChEMBL document CHEMBL1155310, “Synthesis and evaluation of 2-amino-dihydrotetrabenzine derivatives as probes for imaging vesicular monoamine transporter-2” (Bioorg Med Chem Lett, 2009)
